From ChEMBL document CHEMBL1201862, “PubChem BioAssay data set” (2004)
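Dose response: 5 concentrations. Exposure: 48 h. Format: 96-well plates. Endpoint: linear interpolation; highest concentration if not reached. GI50 is the concentration that inhibits growth by half.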 The source made the active and inactive calls. Rule as the data show it: active = GI50 up to about 1.1 µM and inactive = higher.

How the values were obtained:
Experiment in all cases: growth of human tumour cells (NCI), 48 h
M19-MEL = tested on: M19-MEL
HCT-15 = tested on: HCT-15
NCI-H522 = tested on: NCI-H522
HCT-116 = tested on: HCT-116
BT-549 = tested on: BT-549
MCF7 = tested on: MCF7
HCC 2998 = tested on: HCC 2998
UACC-257 = tested on: UACC-257
KM12 = tested on: KM12
T47D = tested on: T47D
SK-MEL-28 = tested on: SK-MEL-28
SF-539 = tested on: SF-539
MDA-MB-231 = tested on: MDA-MB-231
UO-31 = tested on: UO-31
786-0 = tested on: 786-0
OVCAR-3 = tested on: OVCAR-3
UACC-62 = tested on: UACC-62
CCRF-CEM = tested on: CCRF-CEM
SR = tested on: SR
SNB-19 = tested on: SNB-19

Row | SMILES | GI50 (M19-MEL) | GI50 (HCT-15) [µM] | GI50 (NCI-H522) | GI50 (HCT-116) | GI50 (BT-549) | GI50 (MCF7) | GI50 (HCC 2998) | GI50 (UACC-257) | GI50 (KM12) | GI50 (T47D) | GI50 (SK-MEL-28) | GI50 (SF-539) | GI50 (MDA-MB-231) | GI50 (UO-31) | GI50 (786-0) | GI50 (OVCAR-3) | GI50 (UACC-62) | GI50 (CCRF-CEM) | GI50 (SR) | GI50 (SNB-19)
1 | CCCCCCCCCCC(O)C1CCC(C(O)CCC(O)C2CCC(CCCCCCC[C@H](O)CC3=C[C@@H](C)OC3=O)O2)O1 (some centres not stated) | > 76.4 µM (inactive) | > 53.1 | 1.34 µM (inactive) | < 0.033 µM (active) | 0.001 µM (active) | 2 µM (inactive) | 97.5 µM (inactive) | < 0.0169 µM (active) | 6.1 µM (inactive) | > 10 µM (inactive) | > 51.9 µM (inactive) | 26.8 µM (inactive) | > 10 µM (inactive) | 2.25 µM (inactive) | 17.3 µM (inactive) | 18.3 µM (inactive) | 4.02 µM (inactive) | 3.48 µM (inactive) | 0.01 µM (active) | 3.66 µM (inactive)
2 | CCCCCCCCOCC(O)CO (configuration not stated) | > 100 µM (inactive) | > 100 | 28 µM (inactive) | > 100 µM (inactive) | – | – | 89.5 µM (inactive) | > 100 µM (inactive) | 29.5 µM (inactive) | – | > 100 µM (inactive) | > 100 µM (inactive) | – | > 100 µM (inactive) | > 100 µM (inactive) | > 100 µM (inactive) | > 100 µM (inactive) | 4.52 µM (inactive) | 45.9 µM (inactive) | > 100 µM (inactive)
3 | COc1cc2cnc3c4cc(OC)c(OC(C)C)cc4ccc3c2cc1OC | > 100 µM (inactive) | > 100 | > 100 µM (inactive) | > 100 µM (inactive) | – | – | > 100 µM (inactive) | > 100 µM (inactive) | > 100 µM (inactive) | – | > 100 µM (inactive) | > 100 µM (inactive) | – | > 100 µM (inactive) | > 100 µM (inactive) | > 100 µM (inactive) | > 100 µM (inactive) | > 100 µM (inactive) | > 100 µM (inactive) | > 100 µM (inactive)
4 | O=C(CC(O)(c1ccccc1)c1ccc(Cl)cc1)NC(=O)c1ccccc1O (configuration not stated) | 18.6 µM (inactive) | 4.12 | 3.16 µM (inactive) | 11.7 µM (inactive) | – | – | 4.99 µM (inactive) | 10.3 µM (inactive) | 3.86 µM (inactive) | – | 19.8 µM (inactive) | 11.6 µM (inactive) | – | 2.42 µM (inactive) | 10.5 µM (inactive) | 4.36 µM (inactive) | 6.04 µM (inactive) | 4.41 µM (inactive) | 11.6 µM (inactive) | 4.47 µM (inactive)
5 | COC(=O)n1c(CBr)c(Br)c2ccccc21 | 61.7 µM (inactive) | 42.2 | 17.2 µM (inactive) | 39.4 µM (inactive) | – | – | 32.6 µM (inactive) | 39.2 µM (inactive) | 42.9 µM (inactive) | – | > 100 µM (inactive) | 31.3 µM (inactive) | – | 18.2 µM (inactive) | 45 µM (inactive) | 20.3 µM (inactive) | 28.1 µM (inactive) | 23.9 µM (inactive) | 24.8 µM (inactive) | 44.9 µM (inactive)
6 | CCCCCCCCCCCCCCCCCC(=O)OCC(C[As](=O)(O)O)OC(=O)CCCCCCCCCCCCCCCCC (configuration not stated) | > 100 µM (inactive) | 38.4 | 33.1 µM (inactive) | 60.1 µM (inactive) | – | – | > 100 µM (inactive) | > 100 µM (inactive) | > 100 µM (inactive) | – | > 100 µM (inactive) | 32.6 µM (inactive) | – | > 100 µM (inactive) | 27.2 µM (inactive) | 60.4 µM (inactive) | > 100 µM (inactive) | 39 µM (inactive) | 18.4 µM (inactive) | 20.2 µM (inactive)
7 | Cc1ccc(NC(=O)/C(=N/NC(=O)CC#N)C2C(=O)N(c3ccccc3)N=C2N)cc1C (configuration not stated) | > 100 µM (inactive) | > 100 | > 100 µM (inactive) | > 100 µM (inactive) | – | – | > 100 µM (inactive) | > 100 µM (inactive) | > 100 µM (inactive) | – | > 100 µM (inactive) | > 100 µM (inactive) | – | > 100 µM (inactive) | > 100 µM (inactive) | > 100 µM (inactive) | > 100 µM (inactive) | > 100 µM (inactive) | > 100 µM (inactive) | > 100 µM (inactive)
8 | C/C(=N/NS(=O)(=O)c1ccccc1)c1cccc[n+]1[O-] | > 100 µM (inactive) | > 100 | > 100 µM (inactive) | > 100 µM (inactive) | – | – | > 100 µM (inactive) | > 100 µM (inactive) | > 100 µM (inactive) | – | > 100 µM (inactive) | > 100 µM (inactive) | – | > 100 µM (inactive) | > 100 µM (inactive) | > 100 µM (inactive) | > 100 µM (inactive) | > 100 µM (inactive) | > 100 µM (inactive) | > 100 µM (inactive)
